The supplement of paper PMC10307832

Tests used:
Experiment in all cases: relative viability (nuclei count vs DMSO), 5 days (fraction); higher = more cells survive
Tosedostat + Pemetrexed = compound: CC(C)C[C@@H](C(=O)N[C@H](C(=O)OC1CCCC1)c1ccccc1)[C@H](O)C(=O)NO [Tosedostat] + Nc1nc2[nH]cc(CCc3ccc(C(=O)N[C@@H](CCC(=O)O)C(=O)O)cc3)c2c(=O)[nH]1 [Pemetrexed] (partner 0.2 µM)
In short: (§1)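 Nuclei were stained with Hoechst during a one-step fixation (final 0.05% Triton X-100, 1% formaldehyde, 1 ug/ml Hoechst) carried out 5 days after dosing, then counted on 4× images. The cells, lung cancer lines in 1536-well plates, had been dosed by pin tool the day after seeding with one drug alone or a fixed anchor-drug dose plus five library-drug doses (not always all listed) in √10 steps. Relative viability is the nuclei count in treated wells divided by that in vehicle wells, and each value is the median of duplicate plates.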

[1] = compound: CC1=NN=C(O1)C2=NN=C(C=C2)N3CCC(CC3)OC4=C(C=CC(=C4)F)Cl + COc1cccc2cc(-c3nc([C@H]4CC[C@H](C(=O)O)CC4)n4ncnc(N)c34)[nH]c12 [OSI-027] (partner 0.5 µM)
In short: as §1

[2] = compound: CC1=NN=C(O1)C2=NN=C(C=C2)N3CCC(CC3)OC4=C(C=CC(=C4)F)Cl + Nc1ncn([C@H]2C[C@H](O)[C@@H](CO)O2)c(=O)n1 [Decitabine] (partner 2 µM)
In short: as §1

[3] = compound: CC1=NN=C(O1)C2=NN=C(C=C2)N3CCC(CC3)OC4=C(C=CC(=C4)F)Cl + O=C(c1cc(Cc2n[nH]c(=O)c3ccccc23)ccc1F)N1CCN(C(=O)C2CC2)CC1 [Olaparib] (partner 8 µM)
In short: as §1

Cell Line	relative viability (Tosedostat + Pemetrexed; first compound 0.02 µM)	relative viability (Tosedostat + Pemetrexed; first compound 0.06325 µM)	relative viability (Tosedostat + Pemetrexed; first compound 0.2 µM)	relative viability (Tosedostat + Pemetrexed; first compound 0.6325 µM)	relative viability (Tosedostat + Pemetrexed; first compound 2 µM)	relative viability ([1]; first compound 0.253 µM)	relative viability ([1]; first compound 0.8 µM)	relative viability ([1]; first compound 2.53 µM)	relative viability ([1]; first compound 8 µM)	relative viability ([2]; first compound 0.253 µM)	relative viability ([2]; first compound 0.8 µM)	relative viability ([2]; first compound 2.53 µM)	relative viability ([2]; first compound 8 µM)	relative viability ([3]; first compound 0.253 µM)	relative viability ([3]; first compound 0.8 µM)	relative viability ([3]; first compound 2.53 µM)	relative viability ([3]; first compound 8 µM)
HCC-44	0.69	0.68	0.679	0.642	0.639	0.391	0.53	0.344	0.389	0.44	0.413	0.436	0.425	0.295	0.358	0.346	0.363
HCC-827	0.24	0.265	0.255	0.318	0.353	0.602	0.362	0.653	0.591	0.342	0.298	0.183	0.282	0.396	0.242	0.401	0.386
NCI-H1623	–	–	–	–	–	0.36	0.457	0.392	0.429	–	–	–	–	–	–	–	–
NCI-H441	0.228	0.246	0.275	0.266	0.309	0.579	0.347	0.603	0.52	0.221	0.227	0.259	0.254	0.355	0.353	0.349	0.383
NCI-H1734	0.455	0.446	0.428	0.517	0.435	0.647	0.446	0.599	0.524	0.519	0.482	0.463	0.503	0.544	0.509	0.57	0.472
HARA	0.212	0.248	0.222	0.203	0.25	0.404	0.206	0.359	0.348	0.414	0.384	0.357	0.319	0.331	0.244	0.317	0.256
NCI-H1703	–	–	–	–	–	–	–	–	–	–	–	–	–	0.341	0.438	0.448	0.609
NCI-H1395	1.04	1.04	0.848	0.927	0.725	0.641	0.588	0.639	0.595	0.689	0.762	0.757	0.714	0.482	0.539	0.445	0.448
NCI-H1355	1.03	1.05	1.14	0.952	0.916	0.343	0.38	0.386	0.331	0.311	0.333	0.334	0.339	0.378	0.422	0.75	0.596
LXF-289	0.949	0.978	1.05	0.944	1.07	0.76	0.548	0.741	0.687	0.317	0.323	0.343	0.3	0.829	0.632	0.902	0.788
NCI-H1563	0.838	0.99	0.797	1.14	0.839	0.772	0.854	0.77	0.834	–	–	–	–	–	–	–	–
